Columns and labels:
[1] = molecular target: fire-fly luciferase (Photinus pyralis, UniProt P08659, K549A/L550V/N119G/N50D/S548I); assay: Direct luciferase inhibition assay; assay type: cell-based; settings: cells transfected with luciferase-pcDNA3; data not shown
[2] = In vitro hydrolytic stability assay utilizing rat plasma
[3] = tested on: Yellow Fever Virus (YF-IRES-Luc); assay: microbe, parasite or virus in culture; assay type: cell-based
[4] = tested on: uninfected BHK cells; assay type: cell-based, hamster

fire-fly luciferase, sequence (P08659 whole entry N50D/N119G/S548I/K549A/L550V): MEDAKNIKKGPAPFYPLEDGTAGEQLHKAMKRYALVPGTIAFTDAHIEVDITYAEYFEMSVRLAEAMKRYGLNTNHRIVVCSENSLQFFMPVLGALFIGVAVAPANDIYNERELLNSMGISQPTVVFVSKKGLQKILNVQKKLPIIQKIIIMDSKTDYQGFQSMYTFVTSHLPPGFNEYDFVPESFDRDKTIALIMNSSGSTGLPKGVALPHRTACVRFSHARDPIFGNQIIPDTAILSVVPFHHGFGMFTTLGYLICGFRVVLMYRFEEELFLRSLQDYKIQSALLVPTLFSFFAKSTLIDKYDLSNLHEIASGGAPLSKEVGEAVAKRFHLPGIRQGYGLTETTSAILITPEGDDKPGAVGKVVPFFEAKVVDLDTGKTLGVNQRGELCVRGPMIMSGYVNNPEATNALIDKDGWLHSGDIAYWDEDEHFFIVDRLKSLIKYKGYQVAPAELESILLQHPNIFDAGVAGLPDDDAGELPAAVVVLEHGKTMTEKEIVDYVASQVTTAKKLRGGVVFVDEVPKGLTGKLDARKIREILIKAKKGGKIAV

**Q.** What does the source list for `CCCCc1ccc(-c2nc(C)c(/C(C)=N/NC(=N)N)s2)cc1` [Compound 12, 2-(1-(2-(4-Butylphenyl)-4-methylthiazol-5-yl)ethylidene)hydrazinecarboximidamide]?
**A.** reduction of luciferase activity [1]: No reduction of luciferase activity was observed; half-life, times higher than the lead compound 2 [2]: around 6 times

**Q.** Which EC50 [3] does the source give for “Methyl 4-Methyl-2-(naphthalen-2-yl)thiazole-5-carboxylate [Compound 5k]” here?
**A.** The EC50 was 35.7 ± 22.7 µM.

**Q.** And the “% Inhibition (reduction in luciferase activity)” value ([3]; 50 µM)?
**A.** The value was 78.4%.

**Q.** And the GI50 [4]?
**A.** The GI50 was 434 ± 23.3 µM.

**Q.** Which “antiflaviviral activity (in words)” value [3] does the source give for `COC(=O)c1sc(Cc2ccccc2)nc1C` [Compound 5o] here?
**A.** Its value is “inactive”.

**Q.** Which inhibition at 50 µM ([3]; Yellow fever virus, BHK, read-out: % Inhibition (reduction in luciferase activity)) does the source give for `COC(=O)c1sc(-c2ccc(Cl)c(Cl)c2)nc1C(Br)Br` [Compound 6j, Methyl 4-(Dibromomethyl)-2-(3,4-dichlorophenyl)thiazole-5-carboxylate] here?
**A.** Its inhibition at 50 µM is under 50%.

**Q.** Which “antiflaviviral activity (in words)” value [3] does the source give for `CCCCc1ccc(-c2nc(C)c(C(=O)O)s2)cc1` [Compound 8, 2-(4-Butylphenyl)-4-methylthiazole-5-carboxylic Acid] here?
**A.** Its value is “inactive”.

**Q.** With `COC(=O)c1sc(-c2ccccc2)nc1C(Br)Br` [Compound 6a, Methyl 4-(Dibromomethyl)-2-phenylthiazole-5-carboxylate] as the compound, how does the “antiflaviviral activity (in words)” value [3] read?
**A.** Its value is “very weak antiflaviviral inhibitory activity”.

**Q.** For `COC(=O)c1sc(-c2cccc(Br)c2)nc1C(Br)Br` [Compound 6c, Methyl 2-(3-Bromophenyl)-4-(dibromomethyl)thiazole-5-carboxylate], which “antiflaviviral activity (in words)” value [3] is on record?
**A.** The value was “weak activity”.

**Q.** With `COC(=O)c1sc(-c2ccc(C(C)(C)C)cc2)nc1C` [Compound 5l] as the compound, how does the “antiflaviviral activity (in words)” value [3] read?
**A.** The value was “inactive”.

Reference: paper PMC3119515 (Bioorganic & medicinal chemistry, 2011)
